Values joined by “and” are separate entries in the source; they are usually repeats but may differ in a detail not shown here. Equal entries are not always repeated.
What was measured:
Format in all cases: biochemical
[1] = Detection of LPS in water in presence of CaSt and EDTA and Tween 20; details: 5mL, 8330 EU spiked; for Percent detected Endotoxin: 60 min
Description: Further testing was performed with addition of EDTA and Polysorbate 20 reagents to verify permanent removal of LPS/endotoxin activity, by adding EDTA and Polysorbate 20 to the extraction solutions to test for potential recovery of endotoxin activity when introduced to these two substances.
The testing was performed in aqueous solutions with added EDTA and Polysorbate 20, with suspended CaSt present in some solutions in varying quantities. […] The tubes were vortexed for 1 minute and placed in a 37C bath for 1 hour. The tubes were removed from the bath and again vortexed for 1 minute. The solutions were diluted and tested for endotoxin using the Kinetic Chromogenic Method for Endotoxin Quantitation, Charles River Laboratories, Charleston S.C. […] These samples were rigorously vortexed and tested using the Kinetic Chromogenic Method for Endotoxin Quantitation, Charles River Laboratories, Charleston S.C. […]

[2] = Suture testing in aqueous suspension of CaSt: endotoxin detected on LPS-contaminated suture
Description: Treatment of sutures in aqueous suspensions of CaSt was performed as follows: Suture used was VICRYL® (Polyglactin 910) suture made of a copolymer made from 90% glycolide and 10% L-lactide, Size 1, 27 inch pieces. […] Endosafe LAL Reagent Water (LRW) was used, manufactured by Charles River Laboratories, Charleston S.C..
Eight strands of suture were placed in tubing with LPS (endotoxin) solution for 10 minutes at a time. The sutures were dried for 20 minutes and then placed in round bottom tubes. Suspensions of 5% by weight CaSt in LAL Reagent Water were prepared. (0.5 g CaSt in 10 mL LRW). One suture was placed in each tube and vortexed in this solution for approximately 10 seconds. The sutures were removed and allowed to dry for 20 minutes and then placed in round bottom tubes. This was done for 3 sutures. Three pieces of suture, serving as the control, were not submerged in any solutions and placed in test tubes. 3 mL of LAL reagent water was added to each test tube, vortexed vigorously for 1 minute, and then placed in a hot water bath at 37°C for 1 hour. They were then removed, vortexed vigorously for 1 minute, diluted, and tested on the MCS system. […] These were also tested for endotoxin on the MCS. Table 4. Detection of LPS after adding CaSt to test tubes containing water spiked with LPS

[3] = Wound dressing (fibrin pad) spiked with LPS, treated in cyclohexane containing CaSt; details: Tube 2: 10 mL cyclohexane with 0.1 g CaSt, 15 minutes rolling; for Endotoxin detected on Pad (EU): pad spiked 8.9 EU
Description: A wound dressing containing dry fibrinogen and dry thrombin on an absorbable support was tested as follows. The pad was spiked with LPS and then exposed to cyclohexane containing CaSt to determine the effect on detectable LPS.
Three 1x2 inch pieces of the dressing were spiked with endotoxin resulting in 8.9 EU of LPS. The pieces were allowed to dry for 20 minutes, then placed into 50 mL polypropylene conical tubes. 7.5 mL of LAL reagent water +2.5 mL 0.25M tris buffer was added to Tube 1. 10 mL of cyclohexane with 0.1 g of CaSt was added to Tube 2. 10 mL of cyclohexane was added to Tube 3. The tubes were closed and then placed on the bottle roller rotator machine for 15 minutes so that the tube could continuously roll and the dressing was constantly in contact with liquid.
Tube 1 solution was then diluted and tested for endotoxin on the MCS system. The fibrin pad pieces from Tube 2 and Tube 3 were removed and placed in new tubes and extracted in 7.5 mL of LAL reagent water + 2.5 mL 0.25M tris buffer. The solutions were then tested on the MCS system for endotoxin (LPS). Table 9. Results of testing of dressing in cyclohexane containing CaSt

[4] = Suture testing in ethyl acetate containing CaSt: detection of LPS on suture; details: LPS-contaminated suture submerged in Ethyl Acetate w/ 5% Calcium Stearate, vortexed 10 seconds
Description: An absorbable VICRYL® (Polyglactin 910) suture (Size 1, Length: 27in) made of a copolymer made from 90% glycolide and 10% L-lactide was exposed to a solution containing LPS (endotoxin) (9 Strands of Vicryl suture were immersed in tubing with endotoxin solution (SRW, Concentration: 3980 EU/mL) for 10 minutes at a time at ambient temperature. The sutures were air dried for 20 minutes in a vented chemical hood and then placed in round bottom and dried The suture was then immersed into Ethyl Acetate (EtAc) containing CaSt, vortexed briefly for 10 seconds, dried for 20 minutes in a vented chemical hood, and extracted in endotoxin free water at ambient temperature. The suture extracted in endotoxin free water (LRW) was then tested for LPS using the Kinetic Chromogenic Method for Endotoxin Quantitation, Charles River Laboratories, Charleston S.C.

[5] = Kinetics of removal of LPS with different agitation techniques in presence of stearate salts; details: for Endotoxin Detected (EU): 5mL SRW, baseline 1,502; for Percent (%) Removed: vs SRW Baseline
Description: 5mL of SRW was added to each of the tubes. Each solution was tested for endotoxin removal after agitation based on with sonication, vortexing, or test tube rolling. Sonication samples were sonicated at each indicated time interval for 30 seconds at a magnitude of 30. Vortex samples were vortexed at each indicated time interval for 30 seconds at 2500 RPM. Rolling samples were constantly rolling at 10 rpm. The samples were tested on the MCS for endotoxin at 1 minute, 20 minutes, 40 minutes, 60 minutes, and 80 minutes.

[6] = Weight of Calcium Stearate 0.007 g
[7] = Weight of Calcium Stearate 0.018 g
[8] = Weight of Calcium Stearate 0.028 g

## CCCCCCCCCCCCCCCCCC(=O)O [Calcium Stearate]
[1]; [6]
  Endotoxin Detected (EU): 3995 EU
  Percent detected Endotoxin: 48.0%
[1]; [7]
  Endotoxin Detected (EU): 1487.5 EU
  Percent detected Endotoxin: 17.9%
[1]; [8]
  Endotoxin Detected (EU): 235 EU
  Percent detected Endotoxin: 2.8%
[2]; Water with 5% Calcium Stearate solution tested after suture removal (samples 4-6)
  Endotoxin Detected (EU): <1.0 EU
[2]; suture submerged in LAL Water w/ 5% Calcium Stearate, samples 4-6
  Average Endotoxin Detected (EU): 3.27 EU
[2]; suture submerged in LAL Water w/ 5% Calcium Stearate, vs. sutures not submerged (84 EU)
  Average Change in Endotoxin Level (%): -96.1%
[3]; Tube 1 = no cyclohexane, 8.9 EU
  Percent Endotoxin detected as compared to Tube 1: 20.2%
[3]
  Endotoxin detected on Pad (EU): 1.8 EU
[3]; listed as CaSt
  Endotoxin detected on Pad (EU): 2 EU
[4]
  Endotoxin Detected (EU): 23.4 EU and 21.78 EU and 25.62 EU
[5]; CaSt vs. other salt forms
  removal of LPS (in words), comparison of salts of stearic acid: more efficacious in removal of LPS
[5]; Rolling, 1 minute
  Endotoxin Detected (EU): 1,230 EU
  Percent (%) Removed: 18.1%
[5]; Rolling, 20 minutes
  Endotoxin Detected (EU): 1,050 EU
  Percent (%) Removed: 30.1%
[5]; Rolling, 40 minutes
  Endotoxin Detected (EU): 630 EU
  Percent (%) Removed: 58.1%
[5]; Rolling, 60 minutes
  Endotoxin Detected (EU): 637 EU
  Percent (%) Removed: 57.6%
[5]; Rolling, 80 minutes
  Endotoxin Detected (EU): 451 EU
  Percent (%) Removed: 70%
[5]; Sonication, 1 minute
  Endotoxin Detected (EU): 270 EU
  Percent (%) Removed: 82%
[5]; Sonication, 20 minutes
  Endotoxin Detected (EU): 130 EU
  Percent (%) Removed: 91.3%
[5]; Sonication, 40 minutes
  Endotoxin Detected (EU): 87.5 EU
  Percent (%) Removed: 94.2%
[5]; Sonication, 60 minutes
  Endotoxin Detected (EU): 56.9 EU
  Percent (%) Removed: 96.2%
[5]; Sonication, 80 minutes
  Endotoxin Detected (EU): 16.4 EU
  Percent (%) Removed: 98.9%
[5]; Vortexing, 1 minute
  Endotoxin Detected (EU): 451 EU
  Percent (%) Removed: 70%
[5]; Vortexing, 20 minutes
  Endotoxin Detected (EU): 301 EU
  Percent (%) Removed: 80%
[5]; Vortexing, 40 minutes
  Endotoxin Detected (EU): 139 EU
  Percent (%) Removed: 90.7%
[5]; Vortexing, 60 minutes
  Endotoxin Detected (EU): 173 EU
  Percent (%) Removed: 88.5%
[5]; Vortexing, 80 minutes
  Percent (%) Removed: 93.1%

Source: patent publication EP3355943B1, “METHODS AND SYSTEMS FOR TREATING MEDICAL DEVICES AND FLUIDS” (Ethicon, Inc., priority 2015, dated 2017)
